# From patent publication US8901138B2, “Sulfoximine substituted quinazolines for pharmaceutical compositions” (Boehringer Ingelheim International GmbH, priority 2012, dated 2014)
# Key:
# [1] = molecular target: T1, MNK2a (Homo sapiens, UniProt Q9HBH9); test: MNK2a in vitro kinase assay (assay 1), ADP-Glo; assay type: biochemical; details: preactivated GST-MNK2a, 20 μM ATP, read-out: MNK2 IC50
# T1 construct: made in house
# Summary of the method: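 Preactivated GST-MNK2a (10 nM) with eIF4E peptide (25 μM) and ATP (20 μM) in HEPES/DTT/MgCl2 buffer, 90 min at room temperature, final DMSO <3%. ADP formed read by ADP-Glo luminescence and normalised to vehicle and 20 μM reference-inhibitor controls; IC50 from dose-response curves.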
# [2] = molecular target: MNK1a (Homo sapiens, UniProt Q9BUB5); test: MNK1 in vitro kinase assay (assay 2), Z'-LYTE; assay type: biochemical; details: for IC50: pre-activated GST-MNK1a
# Summary of the method: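 Pre-activated GST-MNK1a (13.5-54 ng) with 2 μM Ser/Thr 07 FRET peptide in 50 mM HEPES pH 7.5, 10 mM MgCl2, 2 mM MnCl2, 1 mM EGTA, 1 mM DTT, 1% DMSO; 1 h kinase then 1 h development at room temperature. Coumarin/fluorescein emission ratio gives % phosphorylation; sigmoidal dose-response fit.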
# Chain of MNK1a (Q9BUB5 1-424 isoform Q9BUB5-2): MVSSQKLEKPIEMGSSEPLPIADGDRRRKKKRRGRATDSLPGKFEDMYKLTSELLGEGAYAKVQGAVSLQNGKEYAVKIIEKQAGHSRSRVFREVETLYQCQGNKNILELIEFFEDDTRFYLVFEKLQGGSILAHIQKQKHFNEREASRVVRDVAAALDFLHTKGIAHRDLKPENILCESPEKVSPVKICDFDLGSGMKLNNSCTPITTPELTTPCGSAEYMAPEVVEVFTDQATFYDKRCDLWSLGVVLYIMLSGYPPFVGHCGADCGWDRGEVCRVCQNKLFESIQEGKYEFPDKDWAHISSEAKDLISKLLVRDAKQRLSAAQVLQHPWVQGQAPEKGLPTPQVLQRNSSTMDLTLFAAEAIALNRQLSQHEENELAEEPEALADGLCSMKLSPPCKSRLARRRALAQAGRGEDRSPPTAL
# T1 sequence (Q9HBH9 whole entry): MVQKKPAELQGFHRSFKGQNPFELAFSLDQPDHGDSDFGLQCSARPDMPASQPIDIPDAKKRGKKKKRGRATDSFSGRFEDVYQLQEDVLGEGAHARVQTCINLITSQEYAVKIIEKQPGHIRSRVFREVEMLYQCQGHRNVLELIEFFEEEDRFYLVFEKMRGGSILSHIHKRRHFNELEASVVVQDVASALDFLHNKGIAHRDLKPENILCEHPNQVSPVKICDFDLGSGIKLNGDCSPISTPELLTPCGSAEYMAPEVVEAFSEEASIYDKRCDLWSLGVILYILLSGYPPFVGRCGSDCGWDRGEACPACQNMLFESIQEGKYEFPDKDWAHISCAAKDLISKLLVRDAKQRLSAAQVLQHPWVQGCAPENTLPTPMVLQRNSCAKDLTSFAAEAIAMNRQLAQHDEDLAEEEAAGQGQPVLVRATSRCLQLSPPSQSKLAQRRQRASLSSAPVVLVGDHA
Compound,IC50 [1],inhibition at 1 µM ([2]; compound concentration of 1 μM),IC50 [2],"% Inhibition of MNK1 ([2]; compound concentration of 1 μM, 1 µM)"
Cc1cc(N=S2(=O)CCC2)cc2ncnc(Nc3ccc(F)cc3O[C@H]3CCOC3)c12 [Example 2.98],1 nM,95%,,
Cc1cc(N=S(C)(C)=O)cc2ncnc(Nc3ccc(C#N)cc3OC3CCOCC3)c12 [Example 7.6],6 nM,99%,,
Cc1cc(N=S2(=O)CCCC2)cc2ncnc(Nc3cccnc3O[C@@H]3CO[C@H]4[C@@H]3OC[C@H]4O)c12 [Example 2.4],4 nM,97%,,
CO[C@H]1CC[C@H](Oc2cc(F)ccc2Nc2ncnc3cc(N=S4(=O)CCCCC4)cc(C)c23)CC1 [Example 2.84],2 nM,91%,,
Cc1cc(N=S(C)(C)=O)cc2ncnc(Nc3cccnc3O[C@H]3CC[C@H](N)CC3)c12 [Example 3.2],4 nM,101%,,
Cc1cc(N=S(C)(C)=O)cc2ncnc(Nc3cccnc3O[C@H]3CCCNC3)c12 [Example 1.37],4 nM,,28 nM,
Cc1cc(N=S(C)(=O)CCc2ccccc2)cc2ncnc(Nc3ccc(F)cc3O[C@H]3CC[C@H](O)CC3)c12 (stereo partly drawn) [Example 2.54],5 nM,69%,,
COCCS(C)(=O)=Nc1cc(C)c2c(Nc3ccc(F)cc3O[C@@H]3CO[C@H]4[C@@H]3OC[C@H]4O)ncnc2c1 (stereo partly drawn) [Example 2.41],6 nM,90%,,
Cc1cc(N=S(C)(C)=O)cc2ncnc(Nc3ccsc3O[C@@H]3CCOC3)c12 [Example 2.58],109 nM,30%,,
CO[C@H]1CC[C@H](Oc2cc(F)ccc2Nc2ncnc3cc(N=S4(=O)CCN(C(=O)N(C)C)CC4)cc(C)c23)CC1 [Example 7.5],7 nM,77%,,
Cc1cc(N=S(C)(C)=O)cc2ncnc(Nc3cccnc3O[C@H]3CC[C@H](O)CC3)c12 [Example 2.31],2 nM,100%,,
Cc1cc(N=S(C)(C)=O)cc2ncnc(Nc3ccc(C(N)=O)cc3OC3CCOCC3)c12 [Example 2.16],10 nM,94%,,
Cc1cc(N=S2(=O)CCOCC2)cc2ncnc(Nc3ccc(F)cc3O[C@H]3CCOC3)c12 [Example 2.3],5 nM,89%,,
Cc1cc(N=S(C)(C)=O)cc2ncnc(Nc3ccc(F)cc3O[C@@H]3CO[C@H]4[C@@H]3OC[C@H]4C#N)c12 [Example 2.30],7 nM,88%,,
Cc1cc(N=S2(=O)CCCC2)cc2ncnc(Nc3cccnc3OC3COCCOC3)c12 [Example 2.88],5 nM,95%,,
Cc1cc(N=S2(=O)CCOCC2)cc2ncnc(Nc3ccc(F)cc3O[C@@H]3CO[C@H]4[C@@H]3OC[C@H]4O)c12 [Example 2.2],4 nM,95%,,
Cc1cc(N=S2(=O)CCCC2)cc2ncnc(Nc3ccc(F)cc3O[C@@H]3CO[C@@H]4OCC[C@@H]43)c12 (racemic) [Example 2.82],5 nM,88%,,
CS(C)(=O)=Nc1cc(F)c2c(Nc3cccnc3O[C@H]3CC[C@H](N)CC3)ncnc2c1 [Example 3.5],5 nM,101%,,
CCS(C)(=O)=Nc1cc(C)c2c(Nc3ccc(F)cc3O[C@H]3CC[C@H](OC)CC3)ncnc2c1 (stereo partly drawn) [Example 2.81],4 nM,92%,,
CCO[C@@H]1CO[C@H]2[C@@H]1OC[C@H]2Oc1cc(F)ccc1Nc1ncnc2cc(N=S3(=O)CCCC3)cc(C)c12 [Example 2.37],1 nM,95%,,
Cc1cc(N=S2(=O)CCNCC2)cc2ncnc(Nc3ccc(F)cc3O[C@@H]3CO[C@H]4[C@@H]3OC[C@H]4O)c12 [Example 3.3],5 nM,95%,,
Cc1cc(N=S2(=O)CCCC2)cc2ncnc(Nc3ccc(F)cc3O[C@@H]3CCN(C(=O)OC(C)(C)C)C3)c12 [Example 2.59],15 nM,82%,,
Cc1cc(N=S(C)(C)=O)cc2ncnc(Nc3ccc(C#N)nc3OC3CCOCC3)c12 [Example 1.38],12 nM,99%,,
CO[C@H]1CC[C@H](Oc2cc(F)ccc2Nc2ncnc3cc(N=S4(=O)CCNCC4)cc(C)c23)CC1 [Example 3.10],8 nM,88%,,
CNC(=O)N1CCS(=O)(=Nc2cc(C)c3c(Nc4ccc(F)cc4O[C@H]4CC[C@H](OC)CC4)ncnc3c2)CC1 [Example 7.4],7 nM,88%,,
O=S1(=Nc2cc(Cl)c3c(Nc4ccc(F)cc4O[C@H]4CCOC4)ncnc3c2)CCC1 [Example 1.26],2 nM,100%,,

# Results, then the compound that gave them:
IC50 [1],inhibition at 1 µM ([2]; compound concentration of 1 μM),IC50 [2],"% Inhibition of MNK1 ([2]; compound concentration of 1 μM, 1 µM)",Compound
2 nM,97%,,,C=Cc1cc(N=S(C)(C)=O)cc2ncnc(Nc3ccc(F)cc3O[C@H]3CCOC3)c12 [Example 7.7]
25 nM,56%,,,CS(C)(=O)=Nc1cc(O)c2c(Nc3ccc(F)cc3O[C@H]3CCOC3)ncnc2c1 [Example 1.22]
3 nM,100%,75 nM,,CO[C@H]1CC[C@H](Oc2cc(F)ccc2Nc2ncnc3cc(N=S(C)(C)=O)cc(C)c23)CC1 [Example 2.75]
4 nM,83%,,,Cc1cc(N=S(C)(C)=O)cc2ncnc(Nc3ccc(F)cc3O[C@@H]3CC[C@@H]4OCC[C@@H]43)c12 [Example 2.124]
2 nM,,21 nM,,CS(C)(=O)=Nc1cc(C(F)F)c2c(Nc3ccc(F)cc3O[C@H]3CCOC3)ncnc2c1 [Example 1.21]
1 nM,100%,25 nM,,CS(C)(=O)=Nc1cc(Cl)c2c(Nc3ccc(F)cc3O[C@@H]3CO[C@@H]4CCO[C@@H]43)ncnc2c1 [Example 1.4]
14 nM,84%,,,COC1CCCC(Oc2cc(F)ccc2Nc2ncnc3cc(N=S(C)(C)=O)cc(C)c23)C1 (racemic) [Example 4.12]
2 nM,100%,,,Cc1cc(N=S(C)(C)=O)cc2ncnc(Nc3ccc(F)cc3O[C@@H]3CO[C@H]4[C@@H]3OC[C@@H]4F)c12 [Example 2.116]
12 nM,91%,,,CS(C)(=O)=Nc1cc(F)c2c(Nc3ccc(F)cc3O[C@@H]3CCCN(Cc4ncon4)C3)ncnc2c1 [Example 6.12]
1 nM,98%,,,Cc1cc(N=S(C)(C)=O)cc2ncnc(Nc3ccc(F)cc3O[C@@H]3CO[C@H]4[C@@H]3OC[C@@H]4O)c12 [Example 1.1]
1 nM,,25 nM,,Cc1cc(N=S(C)(C)=O)cc2ncnc(Nc3ccc(F)cc3O[C@@H]3CCC[C@H]3O)c12 [Example 7.16]
2 nM,97%,,,Cc1cc(N=S(C)(C)=O)cc2ncnc(Nc3ccc(F)cc3O[C@H]3CCOC3)c12 [Example 2.47]
3 nM,96%,,,CS(C)(=O)=Nc1cc(C#N)c2c(Nc3ccc(F)cc3O[C@H]3CCOC3)ncnc2c1 [Example 7.9]
4 nM,89%,,,Cc1cc(N=S(C)(C)=O)cc2ncnc(Nc3ccc(F)cc3OC3(C)CC3)c12 [Example 1.28]
7 nM,82%,,,Cc1cc(N=S(C)(=O)c2ccccn2)cc2ncnc(Nc3ccc(F)cc3O[C@H]3CCOC3)c12 (stereo partly drawn) [Example 2.38]
6 nM,90%,,,COc1cc(N=S(C)(C)=O)cc2ncnc(Nc3ccc(F)cc3O[C@H]3CC[C@H](OC)CC3)c12 [Example 5.3]
2 nM,103%,,,Cc1cc(N=S(C)(C)=O)cc2ncnc(Nc3ccc(F)cc3OC3COCOC3)c12 [Example 2.120]
4 nM,93%,,,Cc1cc(N=S(C)(C)=O)cc2ncnc(Nc3ccc(C(N)=O)cc3OC3CCCC3)c12 [Example 2.24]
4 nM,92%,,,Cc1cc(N=S(C)(C)=O)cc2ncnc(Nc3ccc(F)cc3O[C@H]3CC[C@H](C#N)CC3)c12 [Example 4.4]
7 nM,,,91%,"CCS(C)(=O)=Nc1cc(C)c2c(Nc3ccc(F)cc3OC3CCOC3)ncnc2c1 (single isomer, unassigned) [Example 7.14]"
5 nM,100%,57 nM,,CO[C@@H]1CO[C@H]2[C@@H]1OC[C@H]2Oc1cc(F)ccc1Nc1ncnc2cc(N=S(C)(C)=O)cc(F)c12 [Example 2.76]
13 nM,87%,,,Cc1cc(N=S(C)(C)=O)cc2ncnc(Nc3ccc(F)cc3OC3(C)COC3)c12 [Example 1.31]
2 nM,89%,,,Cc1cc(N=S(C)(C)=O)cc2ncnc(Nc3ccc(F)cc3OC3(C(F)(F)F)CCC3)c12 [Example 1.30]
11 nM,73%,,,Cc1cc(N=S(C)(C)=O)cc2ncnc(Nc3ccc(F)cc3O[C@@H]3CO[C@@H]4OCC[C@@H]43)c12 (racemic) [Example 2.62]
21 nM,92%,,,Cc1cc(N=S(C)(C)=O)cc2ncnc(Nc3ccccc3OC3CCOCC3)c12 [Example 1.12]
4 nM,93%,,,Cc1cc(N=S(C)(C)=O)cc2ncnc(Nc3ccc(F)cc3O[C@@H]3CCCN(CCC#N)C3)c12 [Example 6.20]
36 nM,81%,,,CS(C)(=O)=Nc1cc(F)c2c(Nc3ccc(F)cc3O[C@@H]3CCNC3)ncnc2c1 [Example 3.7]
13 nM,83%,,,CCS(=O)(CC)=Nc1cc(C)c2c(Nc3ccc(F)cc3O[C@H]3CCOC3)ncnc2c1 [Example 2.92]
